Reference: patent US9409917B2, “Heterocyclic amide derivatives as P2X7 receptor antagonists” (ACTELION PHARMACEUTICALS LTD., priority 2012, dated 2016)
Read-outs that look alike come from different tables or passages of the source.

Target: human recombinant P2X7 receptor (Homo sapiens (Human), UniProt Q99572)
Experiment: YO-PRO assay: P2X7 receptor antagonistic activity (ATP-induced YO-PRO-1 uptake, FLIPR)
[1] = read-out: IC50 [nM], antagonistic activities with respect to the P2X7 receptor

human recombinant P2X7 receptor, sequence (Q99572 whole entry): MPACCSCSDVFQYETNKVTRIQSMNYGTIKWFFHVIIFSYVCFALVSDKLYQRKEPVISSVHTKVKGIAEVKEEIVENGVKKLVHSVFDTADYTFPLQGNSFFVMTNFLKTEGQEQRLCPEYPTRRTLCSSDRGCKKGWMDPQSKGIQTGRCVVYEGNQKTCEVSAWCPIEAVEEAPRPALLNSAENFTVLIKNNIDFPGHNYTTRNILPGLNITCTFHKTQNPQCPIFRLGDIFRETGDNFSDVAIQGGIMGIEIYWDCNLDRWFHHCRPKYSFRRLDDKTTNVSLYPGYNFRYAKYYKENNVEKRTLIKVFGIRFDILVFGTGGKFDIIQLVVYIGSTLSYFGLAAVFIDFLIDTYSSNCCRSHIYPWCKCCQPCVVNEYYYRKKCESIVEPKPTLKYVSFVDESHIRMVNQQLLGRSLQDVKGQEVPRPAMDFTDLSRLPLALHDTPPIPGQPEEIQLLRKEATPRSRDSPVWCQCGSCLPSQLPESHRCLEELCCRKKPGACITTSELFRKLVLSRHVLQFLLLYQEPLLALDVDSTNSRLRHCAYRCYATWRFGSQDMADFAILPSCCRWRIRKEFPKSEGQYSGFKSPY

Row | Structure (SMILES) | IC50 [nM] | also measured
1 | O=C(N[C@H](CO)C1CCCCC1)[C@H]1CCOc2ncccc21 (mixture of isomers) [Example 8, (S)-3,4-Dihydro-2H-pyrano[2,3-b]pyridine-4-carboxylic acid ((S)-1-cyclohexyl-2-hydroxy-ethyl)-amide and (R)-3,4-Dihydro-2H-pyrano[2,3-b]pyridine-4-carboxylic acid ((S)-1-cyclohexyl-2-hydroxy-ethyl)-amide] | – | IC50 [1]: 127 nM
2 | O=C(N[C@H](CO)c1ccc(Cl)cc1Cl)[C@H]1CCOc2ncccc21 (mixture of isomers) [Example 9, (S)-3,4-Dihydro-2H-pyrano[2,3-b]pyridine-4-carboxylic acid [(S)-1-(2,4-dichloro-phenyl)-2-hydroxy-ethyl]-amide and (R)-3,4-Dihydro-2H-pyrano[2,3-b]pyridine-4-carboxylic acid [(S)-1-(2,4-dichloro-phenyl)-2-hydroxy-ethyl]-amide] | – | IC50 (read-out: IC50 [nM], antagonistic activities with respect to the P2X7 receptor, HEK-293 cells expressing human recombinant P2X7 receptor, YO-PRO-1 fluorescence, ATP 250 μM, 90 minutes, highest concentration 10 μM): 70.8 nM
3 | O=C(NCc1ccc(Cl)cc1Cl)C1COc2ncccc21 (racemic) [Example 5, rac-2,3-Dihydro-furo[2,3-b]pyridine-3-carboxylic acid 2,4-dichloro-benzylamide] | 59.2 | –
4 | O=C(NCC1(O)CCCCC1)C1CCOc2ncccc21 (racemic) [Example 10, rac-3,4-Dihydro-2H-pyrano[2,3-b]pyridine-4-carboxylic acid (1-hydroxy-cyclohexylmethyl)-amide] | 3170 | –
5 | Cc1cc(Cl)cc(Cl)c1CNC(=O)C1(F)COc2ncccc21 (racemic) [Example 11, rac-3-Fluoro-2,3-dihydro-furo[2,3-b]pyridine-3-carboxylic acid 2,4-dichloro-6-methyl-benzylamide] | 4.8 | –
6 | Cc1cc(Cl)cc(Cl)c1CNC(=O)C1(F)CCOc2ncccc21 (racemic) [Example 12, rac-4-Fluoro-3,4-dihydro-2H-pyrano[2,3-b]pyridine-4-carboxylic acid 2,4-dichloro-6-methyl-benzylamide] | 3.1 | –
7 | O=C(NCc1c(F)cc(Cl)cc1Cl)C1COc2ncccc21 (racemic) [Example 15, rac-2,3-Dihydro-furo[2,3-b]pyridine-3-carboxylic acid 2,4-dichloro-6-fluoro-benzylamide] | 66.8 | –
8 | O=C(NCc1cccc(C(F)(F)F)c1Cl)C1COc2ncccc21 (racemic) [Example 16, rac-2,3-Dihydro-furo[2,3-b]pyridine-3-carboxylic acid 2-chloro-3-trifluoromethyl-benzylamide] | 12.6 | –
9 | O=C(NCc1cccc(Cl)c1Cl)C1(F)COc2ncccc21 (racemic) [Example 20, rac-3-Fluoro-2,3-dihydro-furo[2,3-b]pyridine-3-carboxylic acid 2,3-dichloro-benzylamide] | 67.9 | –
10 | O=C(NCc1c(Cl)cc(Cl)cc1C1CC1)C1COc2ncccc21 (racemic) [Example 21, rac-2,3-Dihydro-furo[2,3-b]pyridine-3-carboxylic acid 2,4-dichloro-6-cyclopropyl-benzylamide] | 12.9 | –
11 | CCc1cc(Cl)cc(Cl)c1CNC(=O)C1COc2ncccc21 (racemic) [Example 22, rac-2,3-Dihydro-furo[2,3-b]pyridine-3-carboxylic acid 2,4-dichloro-6-ethyl-benzylamide] | 1.5 | –
12 | C=Cc1cc(Cl)cc(Cl)c1CNC(=O)C1COc2ncccc21 (racemic) [Example 23, rac-2,3-Dihydro-furo[2,3-b]pyridine-3-carboxylic acid 2,4-dichloro-6-vinyl-benzylamide] | 12.2 | –
13 | COc1cc(Cl)cc(Cl)c1CNC(=O)C1COc2ncccc21 (racemic) [Example 26, rac-2,3-Dihydro-furo[2,3-b]pyridine-3-carboxylic acid 2,4-dichloro-6-methoxy-benzylamide] | 25.6 | –
14 | Cc1c(Cl)cccc1CNC(=O)C1CCOc2ncccc21 (racemic) [Example 31, rac-3,4-Dihydro-2H-pyrano[2,3-b]pyridine-4-carboxylic acid 3-chloro-2-methyl-benzylamide] | 16 | –
15 | O=C(NCc1ccc(F)cc1Cl)C1CCOc2ncccc21 (racemic) [Example 32, rac-3,4-Dihydro-2H-pyrano[2,3-b]pyridine-4-carboxylic acid 2-chloro-4-fluoro-benzylamide] | 25 | –
16 | O=C(NCc1ccc(Oc2ccccc2)cc1)C1CCOc2ncccc21 (racemic) [Example 33, rac-3,4-Dihydro-2H-pyrano[2,3-b]pyridine-4-carboxylic acid 4-phenoxy-benzylamide] | 255 | –
17 | O=C(NCc1cccc(Cl)c1Cl)C1CCOc2ncccc21 (racemic) [Example 34, rac-3,4-Dihydro-2H-pyrano[2,3-b]pyridine-4-carboxylic acid 2,3-dichloro-benzylamide] | 10.7 | –
18 | O=C(NCc1ccc(Cl)cc1)C1CCOc2ncccc21 (racemic) [Example 35, rac-3,4-Dihydro-2H-pyrano[2,3-b]pyridine-4-carboxylic acid 4-chloro-benzylamide] | 475 | –
19 | O=C(NCc1ccc(C(F)(F)F)cc1)C1CCOc2ncccc21 (racemic) [Example 36, rac-3,4-Dihydro-2H-pyrano[2,3-b]pyridine-4-carboxylic acid 4-trifluoromethyl-benzylamide] | 334 | –
20 | O=C(NCCc1ccc(Cl)cc1Cl)C1CCOc2ncccc21 (racemic) [Example 38, rac-3,4-Dihydro-2H-pyrano[2,3-b]pyridine-4-carboxylic acid [2-(2,4-dichloro-phenyl)-ethyl]-amide] | 67.1 | –
21 | O=C(NCc1ccc(Cl)cc1Cl)C1CCOc2ncccc21 (racemic) [Example 39, rac-3,4-Dihydro-2H-pyrano[2,3-b]pyridine-4-carboxylic acid 2,4-dichloro-benzylamide] | 11.8 | –
22 | O=C(NCc1cccc(C(F)(F)F)c1Cl)C1CCOc2ncccc21 (racemic) [Example 40, rac-3,4-Dihydro-2H-pyrano[2,3-b]pyridine-4-carboxylic acid 2-chloro-3-trifluoromethyl-benzylamide] | 2.7 | –
23 | Cc1cc(Cl)cc(Cl)c1CNC(=O)C1CCOc2c1ccc[n+]2[O-] (racemic) [Example 41, rac-8-Oxy-3,4-dihydro-2H-pyrano[2,3-b]pyridine-4-carboxylic acid 2,4-dichloro-6-methyl-benzylamide] | – | IC50 [1]: 16.3 nM
24 | Cc1c(Cl)cccc1CNC(=O)C1COc2ncccc21 (racemic) [Example 42, rac-2,3-Dihydro-furo[2,3-b]pyridine-3-carboxylic acid 3-chloro-2-methyl-benzylamide] | 46.9 | –
25 | O=C(NCc1ccc(F)cc1Cl)C1COc2ncccc21 (racemic) [Example 43, rac-2,3-Dihydro-furo[2,3-b]pyridine-3-carboxylic acid 2-chloro-4-fluoro-benzylamide] | 86.8 | –
26 | O=C(NCc1ccc(Oc2ccccc2)cc1)C1COc2ncccc21 (racemic) [Example 44, rac-2,3-Dihydro-furo[2,3-b]pyridine-3-carboxylic acid 4-phenoxy-benzylamide] | 1120 | –
27 | O=C(NCc1cccc(Cl)c1Cl)C1COc2ncccc21 (racemic) [Example 45, rac-2,3-Dihydro-furo[2,3-b]pyridine-3-carboxylic acid 2,3-dichloro-benzylamide] | 37.2 | –
28 | O=C(NCc1ccc(Cl)cc1)C1COc2ncccc21 (racemic) [Example 46, rac-2,3-Dihydro-furo[2,3-b]pyridine-3-carboxylic acid 4-chloro-benzylamide] | 795 | –
